Source: patent US12655099B2, “Substituted phenyl sulfide compound and application thereof” (SHENYANG SINOCHEM AGROCHEMICALS R&D CO., LTD., priority 2020, dated 2026)

Assays:
[1] = test system: Adult Spider Mite (Tetranychus cinnabarinus); experiment: Activity against adult spider mite, spray on bean leaves, mortality after 72 h; format: in vivo; settings: adult spider mites
Procedure: According to the solubility of test compounds, the compounds were dissolved with acetone or dimethyl sulfoxide, and then diluted with 0.1% aqueous solution of Tween 80 to form 50 ml test liquid and the content of the acetone or the dimethyl sulfoxide in the total solution was not more than 10% for later use. The adult spider mites were put into two true leaves of bean plants. After the number of mites were investigated, the solution of certain concentrations of test compounds was sprayed by using a handheld Airbrush. Three replicates were set for each treatment. Then the leaves were maintained in standard observation room. After 72 h, the number of surviving mites were observed, and the mortality rate was calculated.

[2] = test system: Egg of Spider Mite (Tetranychus Cinnabarinus); experiment: Activity against egg of spider mite, POTTER spray tower, incubation inhibition; format: in vivo; settings: spider mite eggs; for inhibition at 1.25 µg/mL: Tetranychus cinnabarinus, read-out: Inhibition Rate (%)
Procedure: According to the solubility of test compounds, the compounds were dissolved with acetone or dimethyl sulfoxide, and then diluted with 0.1% aqueous solution of Tween 80 to form 50 ml test liquid and the content of the acetone or the dimethyl sulfoxide in the total solution was not more than 10% for later use. The leaves of bean were chopped into leaf discs and put into a petri dish. Female adult mites were inoculated. After laying eggs, the female adult mites were removed. After the number of eggs were investigated, the solution of certain concentrations of test compounds were sprayed with a POTTER spray tower, for 2 mL per treatment, and blank control was set. When all eggs in the blank control were incubated, the number of eggs which were incubated and unincubated was recorded, and incubation inhibition rate of the eggs was calculated.

Panonychus citri = experiment: Field trial against Panonychus citri on citrus trees; format: in vivo; settings: spray, citrus tree
Procedure: The trial was carried out in the citrus orchard in Yibin City, Sichuan Province. The test sample was “Dekopon”. The test citrus trees were 4 years old and the planting density was more than 70 plants/mu. The test compounds 6 and 14 were set at two different doses of 50 mg/L and 100 mg/L.
As the positive controls, Spirodiclofen suspension agent was set at one dose of 100 mg/L, and Pyridaben wettable powder was set at one dose of 100 mg/L. The test method was spraying by using Pentium 3WBD-20 sprayer, each treatment repeated three times. The number of initial mites was investigated before spraying, and the number of surviving mites was checked and recorded. The number of surviving mites was investigated on the 3 days, 7 days, 14 days, 21 days and 30 days after spraying respectively. The decline rate of mite populationg was counted and the control efficiency was calculated.

Panonychus ulmi = experiment: Field trial for controlling Panonychus ulmi on apple trees; format: in vivo; settings: spray, apple tree
Procedure: The trial was carried out in the orchard of Research Institute of Pomology of Chinese Academy of Agricultural Sciences. The test sample was Starkrimson apple tree, which was 14 years old and the intervals between two plants was 2×4 m. The test compound 14 was set at two different doses of 50 mg/L and 100 mg/L, and Spirodiclofen suspension agent as the positive control was set at one dose of 50 mg/L. The test method was spraying by using the stretcher power sprayer, each treatment repeated three times. The number of initial mites was investigated before spraying, and the number of surviving mites was checked and recorded. The number of surviving mites was investigated on the 3 days, 7 days, 14 days and 21 days after spraying respectively. The decline rate of mite population was counted and the control efficiency was calculated.
[formula] • The field trial results for compound 14 against Panonychus ulmi (Xingcheng, Liaoning, May, 2018) were shown in Table 4.Table 4

two-spotted spider mites = settings: concentration of 50 ppm; cited from earlier work
[3] = Tetranychus cinnabarinus, 1.25 mg/L

O=[N+]([O-])c1cccc(-c2cc(SCC(F)(F)F)c(Cl)cc2F)c1 [Compound 8]
Mortality (%) ([1]; 0.625 mg/L): 65.2%
Mortality (%) ([1]; 1.25 mg/L): 90.7%

Cc1cc(F)c(-c2cccc(SCC(F)(F)F)c2)cc1SCC(F)(F)F [Compound 19]
Inhibition Rate (%) ([2]; 0.625 mg/L): 51.2%
Inhibition Rate (%) ([2]; 1.25 mg/L): 81.1%

CC(C)(C)c1ccc(CSc2cnn(C(C)(C)C)c(=O)c2Cl)cc1 [Pyridaben, reference compound]
Control efficiency (%) 3 days after pesticide application (Panonychus citri; 100 mg/L): 80.24%
Control efficiency (%) 7 days after pesticide application (Panonychus citri; 100 mg/L): 61.51%
Control efficiency (%) 14 days after pesticide application (Panonychus citri; 100 mg/L): 61.51%
Control efficiency (%) 21 days after pesticide application (Panonychus citri; 100 mg/L): 51.62%
Control efficiency (%) 30 days after pesticide application (Panonychus citri; 100 mg/L): 56.60%

Cc1cc(F)c(-c2cccc([N+](=O)[O-])c2)cc1SCC(F)(F)F [Compound 5]
Mortality (%) ([1]; 0.625 mg/L): 95.5%
Mortality (%) ([1]; 1.25 mg/L): 100%
Inhibition Rate (%) ([2]; 0.625 mg/L): 100%
Inhibition Rate (%) ([2]; 1.25 mg/L): 100%

Cc1cc(F)c(-c2cccc(C(F)(F)F)c2)cc1SCC(F)(F)F [KC2, reference compound]
mortality at 1.25 µg/mL [1, 3]: 56.6%
inhibition at 1.25 µg/mL ([2]; 1.25 mg/L): 36.7%

CCC(C)(C)C(=O)OC1=C(c2ccc(Cl)cc2Cl)C(=O)OC12CCCCC2 [Spirodiclofen, reference compound]
Control efficiency (%) 3 days after pesticide application (Panonychus ulmi; 50 mg/L): 49.6%
Control efficiency (%) 7 days after pesticide application (Panonychus ulmi; 50 mg/L): 45.8%
Control efficiency (%) 14 days after pesticide application (Panonychus ulmi; 50 mg/L): 90.3%
Control efficiency (%) 21 days after pesticide application (Panonychus ulmi; 50 mg/L): 94.9%
Control efficiency (%) 3 days after pesticide application (Panonychus citri; 100 mg/L): 91.09%
Control efficiency (%) 7 days after pesticide application (Panonychus citri; 100 mg/L): 80.88%
Control efficiency (%) 14 days after pesticide application (Panonychus citri; 100 mg/L): 80.88%
Control efficiency (%) 21 days after pesticide application (Panonychus citri; 100 mg/L): 72.63%
Control efficiency (%) 30 days after pesticide application (Panonychus citri; 100 mg/L): 73.60%

CSc1cccc(-c2cc(SCC(F)(F)F)c(C)cc2F)c1 [Compound 14]
Inhibition Rate (%) ([2]; 0.625 mg/L): 65.3%
Inhibition Rate (%) ([2]; 1.25 mg/L): 95.8%
Control efficiency (%) 3 days after pesticide application (Panonychus ulmi; 50 mg/L): 92.2%
Control efficiency (%) 7 days after pesticide application (Panonychus ulmi; 50 mg/L): 86.4%
Control efficiency (%) 14 days after pesticide application (Panonychus ulmi; 50 mg/L): 97.3%
Control efficiency (%) 21 days after pesticide application (Panonychus ulmi; 50 mg/L): 93.2%
Control efficiency (%) 3 days after pesticide application (Panonychus ulmi; 100 mg/L): 94.4%
Control efficiency (%) 7 days after pesticide application (Panonychus ulmi; 100 mg/L): 96.6%
Control efficiency (%) 14 days after pesticide application (Panonychus ulmi; 100 mg/L): 99.8%
Control efficiency (%) 21 days after pesticide application (Panonychus ulmi; 100 mg/L): 99.1%
Control efficiency (%) 3 days after pesticide application (Panonychus citri; 50 mg/L): 99.61%
Control efficiency (%) 7 days after pesticide application (Panonychus citri; 50 mg/L): 98.90%
Control efficiency (%) 14 days after pesticide application (Panonychus citri; 50 mg/L): 99.08%
Control efficiency (%) 21 days after pesticide application (Panonychus citri; 50 mg/L): 98.57%
Control efficiency (%) 30 days after pesticide application (Panonychus citri; 50 mg/L): 97.35%

Cc1cc(F)c(-c2cccc([N+](=O)[O-])c2)cc1[S+]([O-])CC(F)(F)F (centres unmarked) [Compound 6]
Mortality (%) ([1]; 0.625 mg/L): 80.6%
Mortality (%) ([1]; 1.25 mg/L): 97.6%
Control efficiency (%) 3 days after pesticide application (Panonychus citri; 50 mg/L): 98.58%
Control efficiency (%) 7 days after pesticide application (Panonychus citri; 50 mg/L): 96.69%
Control efficiency (%) 14 days after pesticide application (Panonychus citri; 50 mg/L): 99.28%
Control efficiency (%) 21 days after pesticide application (Panonychus citri; 50 mg/L): 95.86%
Control efficiency (%) 30 days after pesticide application (Panonychus citri; 50 mg/L): 94.62%

Cc1cc(F)c(-c2ccc([N+](=O)[O-])cc2)cc1SCC(F)(F)F [KC5]
mortality at 0.625 µg/mL ([1]; Tetranychus cinnabarinus, 0.625 mg/L): 29.8%
mortality at 1.25 µg/mL [1, 3]: 71.7%

Cc1cc(F)c(-c2ccccc2[N+](=O)[O-])cc1SCC(F)(F)F [KC6]
mortality at 1.25 µg/mL [1, 3]: 0%

Cc1cc(F)c(-c2cccc(OC(F)(F)F)c2)cc1SCC(F)(F)F [KC3, reference compound]
mortality at 1.25 µg/mL [1, 3]: 50.7%
inhibition at 1.25 µg/mL ([2]; 1.25 mg/L): 20.7%

Cc1cc(F)c(-c2cccc(SCc3ccccc3)c2)cc1SCC(F)(F)F [KC4]
mortality at 1.25 µg/mL [1, 3]: 16.4%
inhibition at 1.25 µg/mL ([2]; 1.25 mg/L): 40.8%
lethal activity (two-spotted spider mites): more than 90%

Cc1cc(F)c(-c2ccc(C(F)(F)F)cc2)cc1SCC(F)(F)F [KC1, reference compound]
mortality at 1.25 µg/mL [1, 3]: 36.5%
inhibition at 1.25 µg/mL ([2]; 1.25 mg/L): 26.2%
